Data from patent publication US20150018546A1, “HETEROCYCLIC COMPOUND HAVING ANTI-HIV ACTIVITY” (TOYAMA CHEMICAL CO., LTD., priority 2012, published 2015).

Test system: HIV-1 (JRCSF)
Assay: Anti-HIV activity in MaRBLE cells infected with HIV-1 (JRCSF), luciferase readout
Type: cell-based
Conditions: Human immunodeficiency virus 1, 168 h; MaRBLE cells (human T lymphocyte-derived HPB-M(a)) infected with HIV-1 (JRCSF); 7 days culture; rate of viral proliferation by luciferase activity; read-out: Anti-HIV activity IC50
Protocol: This test was conducted with reference to Journal of Clinical Microbiology, 2007, Vol. 45, p. 477-487.
The anti-HIV activity was evaluated using MaRBLE cells in which a luciferase gene to be expressed under the control of HIV-1 LTR and a CCR5 gene, etc. were introduced in human T lymphocyte-derived HPB-M(a).
A fresh medium or each appropriately diluted test compound was dispensed to 96-well plates to prepare drug solution-containing plates.
The MaRBLE cells were suspended in RPMI1640 containing 10% FCS (fetal calf serum) and penicillin/streptomycin and infected with HIV-1 (JRCSF). Then, the cells were inoculated to the drug solution-containing plates (1×10^5 cells/well). The same number of uninfected cells were inoculated as a control group to the drug solution-containing plates.
After culture at 37° C. for 7 days in a 5% CO2 atmosphere, the intracellular luciferase activity was measured using Steady-Glo Luciferase assay system (Promega Corp.).
The rate of viral proliferation was determined according to the following expression:
Rate of viral proliferation(%)=(A/B)×100
A=(Firefly luciferase activity of the compound-supplemented well)−(Firefly luciferase activity of the uninfected cells)
B=(Firefly luciferase activity of the compound-free well)−(Firefly luciferase activity of the uninfected cells)
IC50 of the compound was calculated by a plot with concentration as the logarithm and the rate of viral proliferation as the real part using the FORECAST function (linear regression method) of Microsoft Office Excel 2003.

IC50 [nM] | Compound
76 | Cc1ncnc2c1c(NCc1ccc(N(C)C)cc1)cc(=O)n2O [Example 30, 5-((4-(dimethylamino)benzyl)amino)-8-hydroxy-4-methylpyrido[2,3-d]pyrimidin-7(8H)-one]
53 | COc1ccccc1CNc1cc(=O)n(O)c2ncnc(C)c12 [Example 33, 8-hydroxy-5-((2-methoxybenzyl)amino)-4-methylpyrido[2,3-d]pyrimidin-7(8H)-one]
94 | Cc1ncnc2c1c(NCc1ccccc1N1CCCCC1)cc(=O)n2O [Example 138, 8-hydroxy-4-methyl-5-((2-(piperidin-1-yl)benzyl)amino)pyrido[2,3-d]pyrimidin-7(8H)-one]
150 | Cc1ncnc2c1c(N)cc(=O)n2O [Example 127, 5-amino-8-hydroxy-4-methylpyrido[2,3-d]pyrimidin-7(8H)-one]
42 | COc1ccc(CNc2cc(=O)n(O)c3ncnc(C)c23)c(OC)c1 [Example 38, 5-((2,4-dimethoxybenzyl)amino)-8-hydroxy-4-methylpyrido[2,3-d]pyrimidin-7(8H)-one]
160 | O=c1c(-c2ccccc2)c(O)c2c(-c3ccccc3)ncnc2n1O [Example 67, 5,8-dihydroxy-4,6-diphenylpyrido[2,3-d]pyrimidin-7(8H)-one]
67 | Cc1ncnc2c1c(NCc1ccc(N)nc1)cc(=O)n2O [Example 162, 5-(((6-aminopyridin-3-yl)methyl)amino)-8-hydroxy-4-methylpyrido[2,3-d]pyrimidin-7(8H)-one]
190 | O=c1cc(NCc2ccc3ccccc3c2)c2cncnc2n1O [Example 3, 8-hydroxy-5-((2-naphthylmethyl)amino)pyrido[2,3-d]pyrimidin-7(8H)-one]
250 | Cc1c(O)c2c(-c3ccccc3)ncnc2n(O)c1=O [Example 68, 5,8-dihydroxy-6-methyl-4-phenylpyrido[2,3-d]pyrimidin-7(8H)-one]
91 | Cc1ncnc2c1c(NCc1cccc(N)c1)cc(=O)n2O [Example 129, 5-((3-aminobenzyl)amino)-8-hydroxy-4-methylpyrido[2,3-d]pyrimidin-7(8H)-one]
65 | Cc1ncnc2c1c(NCc1cccc(C#N)c1)cc(=O)n2OCc1ccccc1 [Example 34, 3-(((8-(benzyloxy)-4-methyl-7-oxo-7,8-dihydropyrido[2,3-d]pyrimidin-5-yl)amino)methyl)benzonitrile]
110 | Cc1ncnc2c1c(NCc1cc3ccccc3[nH]1)cc(=O)n2O [Example 95, 8-hydroxy-5-(((1H-indol-2-yl)methyl)amino)-4-methylpyrido[2,3-d]pyrimidin-7(8H)-one]
59 | Cc1ncnc2c1c(NCc1cnccc1C(F)(F)F)cc(=O)n2O [Example 133, 8-hydroxy-4-methyl-5-(((4-(trifluoromethyl)pyridin-3-yl)methyl)amino)pyrido[2,3-d]pyrimidin-7(8H)-one]
71 | Cc1ncnc2c1c(NCc1ccc(C(F)(F)F)cc1)cc(=O)n2O [Example 148, 8-hydroxy-4-methyl-5-((4-(trifluoromethyl)benzyl)amino)pyrido[2,3-d]pyrimidin-7(8H)-one]
110 | Cc1ccc(CNc2cc(=O)n(O)c3ncnc(C)c23)cn1 [Example 50, 8-hydroxy-4-methyl-5-(((6-methylpyridin-3-yl)methyl)amino)pyrido[2,3-d]pyrimidin-7(8H)-one]
47 | Cc1ncnc2c1c(NCc1ccccc1)cc(=O)n2O [Example 22, 5-(benzylamino)-8-hydroxy-4-methylpyrido[2,3-d]pyrimidin-7(8H)-one]
150 | O=c1cc(NCc2ccccc2)c2c(O)ncnc2n1O [Example 115, 5-(benzylamino)-4,8-dihydroxypyrido[2,3-d]pyrimidin-7(8H)-one]

IC50 [nM] | Compound
360 | O=C(Nc1ccccc1)c1c(O)c2c(Nc3ccccc3)ncnc2n(O)c1=O [Example 81, 4-anilino-5,8-dihydroxy-7-oxo-N-phenyl-7,8-dihydropyrido[2,3-d]pyrimidine-6-carboxamide]
210 | O=c1cc(NCc2ccccn2)c2cncnc2n1O [Example 5, 8-hydroxy-5-(((pyridin-2-yl)methyl)amino)pyrido[2,3-d]pyrimidin-7(8H)-one]
43 | Cc1ncnc2c1c(NCc1ccc(-c3ccccc3)nc1)cc(=O)n2O [Example 94, 8-hydroxy-4-methyl-5-(((6-phenylpyridin-3-yl)methyl)amino)pyrido[2,3-d]pyrimidin-7(8H)-one]
50 | Cc1ncnc2c1c(NCc1cccc(N(C)C)c1)cc(=O)n2O [Example 29, 5-((3-(dimethylamino)benzyl)amino)-8-hydroxy-4-methylpyrido[2,3-d]pyrimidin-7(8H)-one]
49 | Cc1ncnc2c1c(NCc1ccc(O)cc1)cc(=O)n2O [Example 110, 8-hydroxy-5-((4-hydroxybenzyl)amino)-4-methylpyrido[2,3-d]pyrimidin-7(8H)-one]
210 | CN(C)c1ccc(CNc2cc(=O)n(O)c3ncncc23)cc1 [Example 102, 5-((4-(dimethylamino)benzyl)amino)-8-hydroxypyrido [2,3-d]pyrimidin-7(8H)-one]
43 | Cc1ncnc2c1c(NCc1cccc(C(F)(F)F)c1)cc(=O)n2O [Example 28, 8-hydroxy-4-methyl-5-((3-(trifluoromethyl)benzyl)amino)pyrido[2,3-d]pyrimidin-7(8H)-one]
570 | O=c1cc(NCc2ccc(O)c(O)c2)c2cncnc2n1O [Example 108, 5-((3,4-dihydroxybenzyl)amino)-8-hydroxypyrido[2,3-d]pyrimidin-7(8H)-one]
48 | Cc1ncnc2c1c(NCc1cccnc1N(C)C)cc(=O)n2O [Example 41, 5-(((2-(dimethylamino)pyridin-3-yl)methyl)amino)-8-hydroxy-4-methylpyrido[2,3-d]pyrimidin-7(8H)-one]
94 | Cc1ncnc2c1c(NCc1ccc(OCC(F)(F)F)nc1)cc(=O)n2O [Example 58, 8-hydroxy-4-methyl-5-(((6-(2,2,2-trifluoroethoxy)pyridin-3-yl)methyl)amino)pyrido[2,3-d]pyrimidin-7(8H)-one]
220 | O=c1cc(NC2CCCCC2)c2cncnc2n1O [Example 8, 5-(cyclohexylamino)-8-hydroxypyrido[2,3-d]pyrimidin-7(8H)-one]
68 | Cc1ncnc2c1c(NCC1CCCCC1)cc(=O)n2O [Example 35, 5-((cyclohexylmethyl)amino)-8-hydroxy-4-methylpyrido[2,3-d]pyrimidin-7(8H)-one]
200 | O=c1cc(NCc2ccc(O)cc2)c2cncnc2n1O [Example 103, 8-hydroxy-5-((4-hydroxybenzyl)amino)pyrido[2,3-d]pyrimidin-7(8H)-one]
54 | Cc1ncnc2c1c(NCc1cccc(F)c1)cc(=O)n2O [Example 151, 5-((3-fluorobenzyl)amino)-8-hydroxy-4-methylpyrido[2,3-d]pyrimidin-7(8H)-one]
61 | Cc1ncnc2c1c(NCc1ccc3c(c1)OCO3)cc(=O)n2O [Example 49]
100 | Cc1ncnc2c1c(NCc1ccccn1)cc(=O)n2O [Example 150, 8-hydroxy-4-methyl-5-(((pyridin-2-yl)methyl)amino)pyrido[2,3-d]pyrimidin-7(8H)-one]
590 | O=c1cc(O)c2c(O)ncnc2n1O [Example 77, 4,5,8-trihydroxypyrido[2,3-d]pyrimidin-7(8H)-one]
